# Data from ChEMBL document CHEMBL5620414, “Discovery of YK-029A, a novel mutant EGFR inhibitor targeting both T790 M and exon 20 insertion mutations, as a treatment for NSCLC” (Eur J Med Chem, 2023).
# pIC50: −log10 of the molar value.
# Key:
# [1] = biological target: Epidermal growth factor receptor (Homo sapiens, UniProt P00533, L858R/T790M); experiment: Inhibition of GST-tagged recombinant human EGFR T790M/L858R mutant (668 to 1210 residues) expressed in Insect cells incubated for 60 mins in presence of ATP by biochemical enzymatic assay; design: species or system Insect cell
# [2] = biological target: Epidermal growth factor receptor (Homo sapiens, UniProt P00533); experiment: Inhibition of wildtype EGFR (unknown origin) incubated for 60 mins in presence of ATP by biochemical enzymatic assay
# Chain of Epidermal growth factor receptor (Homo sapiens, UniProt P00533) (P00533 whole entry): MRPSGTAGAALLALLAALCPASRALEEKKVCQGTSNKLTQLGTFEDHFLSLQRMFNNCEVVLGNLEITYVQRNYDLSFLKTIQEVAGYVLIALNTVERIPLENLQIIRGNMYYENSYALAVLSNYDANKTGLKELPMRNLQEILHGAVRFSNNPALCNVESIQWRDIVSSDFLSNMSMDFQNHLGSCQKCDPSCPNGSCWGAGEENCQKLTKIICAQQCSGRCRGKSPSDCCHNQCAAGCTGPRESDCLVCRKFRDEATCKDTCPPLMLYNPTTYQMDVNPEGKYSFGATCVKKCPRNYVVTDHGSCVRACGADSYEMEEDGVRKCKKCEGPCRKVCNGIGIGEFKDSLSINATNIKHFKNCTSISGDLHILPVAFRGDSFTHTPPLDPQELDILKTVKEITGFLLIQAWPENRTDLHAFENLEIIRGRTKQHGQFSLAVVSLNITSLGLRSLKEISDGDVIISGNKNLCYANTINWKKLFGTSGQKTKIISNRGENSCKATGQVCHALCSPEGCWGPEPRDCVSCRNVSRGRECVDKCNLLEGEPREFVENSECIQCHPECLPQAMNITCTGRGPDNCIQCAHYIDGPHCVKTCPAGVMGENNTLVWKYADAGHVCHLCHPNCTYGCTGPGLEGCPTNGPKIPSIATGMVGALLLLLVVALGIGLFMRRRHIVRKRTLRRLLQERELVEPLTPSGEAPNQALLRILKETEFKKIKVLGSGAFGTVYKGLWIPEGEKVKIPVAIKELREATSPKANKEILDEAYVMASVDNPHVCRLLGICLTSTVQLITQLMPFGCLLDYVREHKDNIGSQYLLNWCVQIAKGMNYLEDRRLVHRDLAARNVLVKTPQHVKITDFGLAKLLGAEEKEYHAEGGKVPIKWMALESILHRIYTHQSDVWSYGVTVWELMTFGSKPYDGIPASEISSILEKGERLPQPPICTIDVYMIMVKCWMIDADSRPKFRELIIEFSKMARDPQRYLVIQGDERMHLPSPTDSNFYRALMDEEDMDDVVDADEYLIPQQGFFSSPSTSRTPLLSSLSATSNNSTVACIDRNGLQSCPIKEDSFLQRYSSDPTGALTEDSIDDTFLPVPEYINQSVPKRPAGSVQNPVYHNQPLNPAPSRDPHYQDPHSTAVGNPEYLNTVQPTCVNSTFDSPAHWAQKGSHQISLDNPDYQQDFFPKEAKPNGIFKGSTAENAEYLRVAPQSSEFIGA
# [3] = system: A-431; experiment: Antiproliferative activity against human A-431 cells harboring wildtype EGFR assessed as cell growth inhibition incubated for 72 hrs by CellTiter Glo assay; type: functional
# [4] = system: NCI-H1975; experiment: Antiproliferative activity against human NCI-H1975 cells harboring EGFR L858R/T790M mutant assessed as cell growth inhibition incubated for 72 hrs by CellTiter Glo assay; type: functional; conditions: Homo sapiens, NCI-H1975
# [5] = system: HCC827; experiment: Antiproliferative activity against human HCC827 cells harboring EGFR del19 mutant assessed as cell growth inhibition incubated for 72 hrs by CellTiter Glo assay; type: functional; conditions: Homo sapiens, HCC827
# [6] = system: PC-9; experiment: Antiproliferative activity against human PC-9 cells harboring EGFR del19 mutant assessed as cell growth inhibition incubated for 72 hrs by CellTiter Glo assay; type: functional; conditions: Homo sapiens, PC-9
# [7] = system: BaF3; experiment: Antiproliferative activity against mouse BaF3 cells harboring EGFR D770_N771ins_SVD mutant assessed as cell growth inhibition incubated for 72 hrs by CellTiter Glo assay; type: functional; conditions: Mus musculus, BaF3
smiles,measurement,setting,value
C=CC(=O)Nc1cc(Nc2nccc(-c3ncn4c(C)cccc34)n2)c(OC)cc1N(C)CCN(C)C,pIC50,[1],7.65
same,pIC50,[2],6.02
CC#CC(=O)Nc1cc(Nc2nccc(-c3ncc4c(C)cccn34)n2)c(OC)cc1N(C)CCN(C)C,pIC50,[1],8.86
same,pIC50,[2],7.31
C=CC(=O)Nc1cc(Nc2nccc(-c3ncc4c(C)cccn34)n2)c(OC)cc1N(C)CCN(C)C,GI50,[3],620 nM
same,GI50,[4],29 nM
same,GI50,[5],6.2 nM
same,GI50,[6],4.6 nM
COc1cc(N(C)CCN(C)C)c(NC(=O)/C=C/CN(C)C)cc1Nc1nccc(-c2cnc3c(C)cccn23)n1,pIC50,[1],8.94
same,pIC50,[2],7.33
CC#CC(=O)Nc1cc(Nc2nccc(-c3cnc4c(C)cccn34)n2)c(OC)cc1N(C)CCN(C)C,pIC50,[1],9.03
same,pIC50,[2],7.19
C=CC(=O)Nc1cc(Nc2ncc(C(=O)OC(C)C)c(-c3cn(C)c4ccccc34)n2)c(OC)cc1N(C)CCN(C)C [MOBOCERTINIB],GI50,[3],26 nM
same,GI50,[7],9 nM
C=CC(=O)Nc1cc(Nc2nccc(-c3cnc4c(C)cccn34)n2)c(OC)cc1N(C)C1CCCN(C)C1 (stereo not given),pIC50,[1],8.75
same,pIC50,[2],7.08
C=CC(=O)Nc1cc(Nc2nccc(-c3cnc4c(Cl)cccn34)n2)c(OC)cc1N(C)CCN(C)C,GI50,[3],495 nM
same,GI50,[4],103 nM
same,GI50,[5],5.6 nM
same,GI50,[6],7.3 nM
